Measured values taken from US20230142353A1, “IMPLANT DEVICES AND METHODS FOR TREATMENT OF CERVICAL CANCER” (Washington University, priority 2020, published 2023).

What was measured:
[1] = tested on: C33A subcutaneous cervical tumors; assay: In vivo efficacy, tumor progression with or without radiation; set-up: species or system athymic nude mice
Method: C33A cells (2×10^6/mouse) were suspended in 50% Matrigel and 50% DMEM media. The suspended C33A cells were injected subcutaneously around the lower back of 42 female athymic nude mice that were 6 to 8 weeks old. Tumor progression was confirmed after 3 weeks, and mice were then randomized into 6 groups (n=7) and treated with: (1) tail vein injection of PBS (Vehicle-IV), (2) Cis-Pt-IV at 1 mg/kg, (3) Cis-Pt-Implant at 1 mg Cis-Pt/kg, (4) Vehicle-IV+radiation (5 days×2 Gy/day), (5) Cis-Pt-IV+radiation, and (6) Cis-Pt-Implant+radiation.
In a separate experiment, the effect of a fractionated radiation dose was compared to a single high dose of radiation administered concurrently with Cis-Pt-Implants. C33A cells (2×10^6/mouse) were suspended in 50% Matrigel and 50% DMEM media. The suspended C33A cells were injected subcutaneously around the lower back of 14 female athymic nude mice that were 6 to 8 weeks old (Charles Rivers Laboratories). Tumor progression was confirmed after 3 weeks, mice were then intratumorally implanted with Cis-Pt-loaded implant (1 mg/kg) and randomized into 2 groups (n=7), treated with: (1) fractionated radiation (5 days×2 Gy/d), mimicking external beam radiation; or (2) a single high dose of 8 Gy, mimicking brachytherapy.
For the in vivo experiments above, tumor progression was monitored by measurement of tumor sizes in all treatment groups every 2 days. […]

[2] = tested on: Cervical cancer cell lines; assay: Pt content in cell lines in vitro (ICP-MS); assay type: cell-based, Human; conditions: treated at 6 μM (Av-IC50) for 48 hours, average
Method: Cervical cancer cell lines (10×10^6 cells) were treated Cis-Pt at Av-IC50 for 48 hours. Cells were then lifted with trypsin (0.05% Trypsin-EDTA, Gibco Life Technologies), spun down, and washed 3 times, to eliminate free Cis-Pt. Cell pellets were then weighed, digested, and analyzed by ICP-MS, and the average Pt content in cell lines in vitro (Av-Pt-in vitro) was calculated.

[3] = In vivo biodistribution of Pt in subcutaneous C33A tumor model (ICP-MS); set-up: species or system athymic nude mice; conditions: systemic (IV injection) delivery, 1 mg/kg, 24 hours
[4] = tested on: cervical cancer cell lines C33A, Me-180, HT3, Caski, and SiHa; assay: In vitro cytotoxicity of Cis-Pt, MTT assay; assay type: cell-based, Human; conditions: average dose-response curve of 5 cell lines, 48 hours, read-out: average IC50 (Av-IC50)
Method: Human cervical cancer cell lines C33A, Me-180, HT3, Caski, and SiHa were purchased from American Type Culture Collection (ATCC; Manassas, Va.). Cell lines were cultured in Dulbecco's Modified Eagle Medium (DMEM; Gibco Life Technologies, Grand Island, N.Y.) supplemented with 10% fetal bovine serum (FBS; Gibco Life Technologies), 2 mmol/L of L-glutamine, 100 ng/mL penicillin, and 100 ng/mL streptomycin (Corning CellGro, Mediatech, Manassas, Va.). All cells were cultured at 37° C., 5% CO2 in a NuAire water jacket incubator (Plymouth, Minn.).
The in vitro cytotoxicity on cervical cancer cell lines was assessed using an MTT assay (Sigma Aldrich). Briefly, cells were seeded at 5×10^3 cells/well in 96-well plates overnight at 37° C. to promote their adhesion to the plates. […] After 48 hours of treatment, MTT solution was added to the cells for 3 hours, and then the stop solution was added to dissolve the formazan crystals overnight. The wells were read with SpectraMax i3 multimode microplate spectrophotometer (Molecular Devices, San Jose, Calif.) at 570 nm. Dose-response curves were graphed and the average dose-response curve was calculated.

[5] = tested on: Cervical cancer cell lines; assay: In vitro radio-sensitization with Cis-Pt, MTT assay and combination index; assay type: cell-based, Human; conditions: for sensitization to radiation therapy: 6 Gy
Method: (§1) Clinically relevant Pt concentration (Clin-conc) was estimated as a fraction of Av-IC50 based on the relative difference between tissue Pt contents in clinical biopsies and in vitro: Av-IC50×(Av-Pt-Clin/Av-Pt-in vitro). The radiosensitizing effect of Cis-Pt on cervical cancer cell lines was assessed using an MTT assay. Briefly, cells were treated with or without Cis-Pt at Av-IC50 (6 μM) or Clin-conc (1 μM) for a duration of 24 or 48 hours. Additionally, cells were also treated with or without a single-fraction dose of 6 Gy (4 Gy/min) using an RS2000 160 kV x-ray Irradiator equipped with a 0.3-mm copper filter (Rad Source Technologies Inc, Buford, Ga.), at the beginning of the treatment. At the end of each treatment, an MTT assay was performed to determine the survival of the cells.
The combination effect between Cis-Pt treatment and radiation was evaluated by calculating the combination index (CI) using the formula: CI=(Ea×Eb)/Eab, where Ea and Eb are the individual effects (fractional killing, 0≤Ei≤1) and Eab is the combination effect of drugs a and b. This index represents the ratio between the predicted combination effect and the actual combination effect. When the CI=1, the effect is additive. When the CI<1, the effect is supra-additive; when CI>1, the effect is sub-additive.

[6] = Pt accumulation in cervical cancer patient biopsies (ICP-MS); assay type: in vivo, Human; conditions: for drug accumulation in patient tissues lower than in cell lines at in vitro efficacious concentration: patient biopsies vs cell lines treated at 6 μM
Method: Patients with biopsy-proven cervical carcinoma were enrolled into an institutional review board-approved prospective study in which cervical tumor biopsies were obtained 3 weeks into chemoradiation treatment. All patients were treated with definitive chemoradiation treatment, which consisted of external beam radiation therapy to the pelvis (50.4 Gy) 4 days per week using intensity-modulated radiation therapy with a split-pelvis technique with 6 weekly brachytherapy boosts to a dose of 6.5 Gy per fraction to point A, starting at week 1. Concurrent with radiation therapy, all patients received the conventional treatment of cisplatin (40 mg/m^2, intravenous [IV]) weekly. Cervical tumor samples were collected immediately before delivery of the third brachytherapy treatment, approximately half-way through the treatment course. Samples were collected, immediately snap-frozen, and processed for storage. The average time between cisplatin administration and biopsy was 4.5 days (range, 1-17 days).
To determine tissue Cis-Pt accumulation within the patient biopsy samples, tissue digestion and inductively coupled plasma mass spectrometry (ICP-MS) were performed to quantify the levels of Pt in the samples. Briefly, biopsy samples were thawed and precisely weighed (±0.1 mg) before being digested in concentrated nitric acid (HNO3) overnight. Samples were then diluted with deionized water to a final 5% HNO3 (v/v) and digested using a microwave digestion system (MARS 6 Microwave Digestion System, CEM, Matthews, N.C.) at 200° C. for 45 minutes. Samples were analyzed with ICP-MS (ELAN DRC II ICP-MS, Perkin Elmer, Inc, Waltham, Mass.) for Pt content, against a calibration curve of Pt standards of 0, 0.1, 1, 10, 50, 100, and 250 parts per billion (ppb) in 5% HNO3, which were prepared from 10 parts per million Pt standard solution (Inorganic Ventures, Christiansburg, Va.). Terbium was used as an internal standard throughout the ICP-MS analysis. The average Pt content in clinical biopsies (Av-Pt-Clin) was calculated.
[…]

[7] = tested on: C33A cervical cancer cells; assay: In vitro clonogenic survival; assay type: cell-based, Human; conditions: for clonogenic growth: with or without radiation
Method: C33A cervical cancer cells (0.5×10^6 cells/condition) were plated in T25 flasks 24 hours before treatment. Cells were treated with Cis-Pt at 0, 1, 3, or 6 μM for 4 hours, and subjected to irradiation at 0 or 6 Gy (4 Gy/min). Cells were then lifted with trypsin, counted, and were plated in triplicates for each condition at 500 cells per well in 24 well plates. After 12 days of culture, cells were fixed and stained with 0.5% Crystal Violet (Sigma Aldrich) in methanol, washed, and dried.

[8] = 24 hours after IV injection of 100 mg/m^2; cited from earlier work

## N.N.[Cl][Pt][Cl] [Cis-Pt, cis-Diammineplatinum(II) dichloride]
[1]; systemic delivery 1 mg/kg + 2 Gy×5 days
  treatment outcome with fractionated radiation: improved treatment outcome compared with radiation alone
[1]; systemic delivery (IV) 1 mg/kg, without radiation
  tumor progression: did not alter tumor progression
[2]
  Pt levels in cell lines: about 2560 ng Pt/g tissue
[3]
  Pt concentration in the tumor: 53 ng Pt/g tissue
[4]
  IC50: 6 µM
[5]; 1 μM Cis-Pt
  sensitization to radiation therapy: limited radio-sensitization
[5]; 1 μM treatment
  combination effect of Cis-Pt and radiation by CI: sub-additive
[5]; 6 μM Cis-Pt
  sensitization to radiation therapy: significant sensitization to radiation therapy in all cell lines
[5]; 6 μM treatment
  combination effect of Cis-Pt and radiation by CI: supra-additive
[6]; 40 mg/m^2 IV weekly, biopsies about 3 weeks into chemoradiation, average of 20
  Pt levels detected in patient tissues: about 430 ng Pt/g tissue
[6]; 1-17 days after injection
  influence of time of biopsy since last injection on Pt level within the tumor: not a major factor
[6]
  drug accumulation in patient tissues lower than in cell lines at in vitro efficacious concentration: about 6 fold
[6]; listed as Cisplatin
  drug accumulation in patient tissues lower than in cell lines at in vitro efficacious concentration: 6 fold
[7]; 1 μM, alone or in combination with radiation (6 Gy)
  clonogenic cell survival: unable to limit clonogenic cell survival
[7]; 3 μM
  clonogenic growth: significantly restricted clonogenic growth
[7]; 6 μM
  clonogenic growth: significantly restricted clonogenic growth
[8]
  intratumoral platinum (Pt) concentration: 0.9 ng/mg
